Key:
Type in all cases: in vivo
[1] = test system: Tall fescue v. Coronado; assay: Phytotoxicity of granule formulations with safeners (Table B4.4); conditions: 8 DAT
Protocol: The phytotoxicity to turfgrass of the compound of formula I in combination with various safeners was tested. The combinations were applied by post emergence spray application. Percentage phytotoxicity assessments were taken at various timepoints. The safeners tested in these trials were cloquintocet-mexyl, cyprosulfamide, a compound of formula 2.3, and isoxadifen-ethyl.
Tables B4.4 and B4.5 present the results of trials using safeners applied in combination with granule formulations of the compound of formula I.

[2] = test system: Richardia scabra (Florida Pusley); assay: Weed control via post emergence spray, in common centipedegrass (Table B5.2)
Protocol: The weed control efficacy of the compound of formula I was tested. The compound was applied via post emergence spray to a range of weeds, at various rates and spray treatment treatment regimes. Percentage weed control assessments were taken at various timepoints.

[3] = test system: Tall fescue v. Coronado; assay: Phytotoxicity via granule application, various inert granules (Table B3.3); conditions: 8 DAT
Protocol: The phytotoxicity of the compound of formula I to turfgrass species was tested. The compound was applied by distribution of granule formulations of formula I, post emergence, to turfgrass species at two rates. All treatments were watered-in 1 day after application. Percentage phytotoxicity assessments were taken at various timepoints.
In Tables B3.3 and B3.4, the granular formulations tested were made by spraying the compound of formula I onto various inert granules. In each of these trials, the granule formulations were tested at a higher rate than the corresponding spray application

[4] = test system: Bermudagrass; assay: Phytotoxicity via post emergence spray application (Table B2.5)
Protocol: (§1) The phytotoxicity of the compound of formula I to turfgrass species was tested. The compound was applied via post emergence spray to a range of warm and cool season turfgrass species at various rates and spray treatment treatment regimes. Percentage phytotoxicity assessments were taken at various timepoints.

[5] = test system: turfgrass; assay: Example B2, conclusion in words; conditions: spray
Protocol: as §1

COCCOCc1nc(C(F)(F)F)ccc1C(=O)C1=C(O)C2CCC(C2)C1=O (stereo not drawn) [Formula I, 4-Hydroxy-3-[2-(2-methoxyethoxymethyl)-6-trifluoromethylpyridine-3-carbonyl]-bicyclo[3.2.1]oct-3-en-2-one]
% phytotoxicity ([1]; DG Lite granule, no safener, 680 g ai/ha): 20.0% | % phytotoxicity ([1]; DG Lite granule, safener Cyprosulfamide (0.07%), 680 g ai/ha): 22.5% | % phytotoxicity ([1]; DG Lite granule, safener Formula 2.3 (0.07%), 680 g ai/ha): 16.3% | % phytotoxicity ([1]; DG Lite granule, safener Isoxadifen (0.07%), 680 g ai/ha): 21.3% | % phytotoxicity ([1]; Spray, no safener, 340 g ai/ha): 18.8% | % control ([2]; 1 appl, 140 g ai/ha, 5 DAT): 16.67% | % control ([2]; 1 appl, 140 g ai/ha, 13 DAT): 25.00% | % control ([2]; 1 appl, 140 g ai/ha, 21 DAT): 33.33% | % control ([2]; 1 appl, 140 g ai/ha, 27 DAT): 33.33% | % control ([2]; 1 appl, 140 g ai/ha, 35 DAT): 23.33% | % control ([2]; 1 appl, 140 g ai/ha, 42 DAT): 16.67% | % control ([2]; 1 appl, 140 g ai/ha, 61 DAT): 13.33% | % control ([2]; 1 appl, 280 g ai/ha, 5 DAT): 20.00% | % control ([2]; 1 appl, 280 g ai/ha, 13 DAT): 36.67% | % control ([2]; 1 appl, 280 g ai/ha, 21 DAT): 46.67% | % control ([2]; 1 appl, 280 g ai/ha, 27 DAT): 41.67% | % control ([2]; 1 appl, 280 g ai/ha, 35 DAT): 38.33% | % control ([2]; 1 appl, 280 g ai/ha, 42 DAT): 28.33% | % control ([2]; 1 appl, 280 g ai/ha, 61 DAT): 38.33% | % control ([2]; 2 appl, 140 g ai/ha, 5 DAT): 16.67% | % control ([2]; 2 appl, 140 g ai/ha, 13 DAT): 20.00% | % control ([2]; 2 appl, 140 g ai/ha, 21 DAT): 41.67% | % control ([2]; 2 appl, 140 g ai/ha, 27 DAT): 33.33% | % control ([2]; 2 appl, 140 g ai/ha, 35 DAT): 60.00% | % control ([2]; 2 appl, 140 g ai/ha, 42 DAT): 53.33% | % control ([2]; 2 appl, 140 g ai/ha, 61 DAT): 8.33% | % control ([2]; 2 appl, 280 g ai/ha, 5 DAT): 16.67% | % control ([2]; 2 appl, 280 g ai/ha, 13 DAT): 28.33% | % control ([2]; 2 appl, 280 g ai/ha, 21 DAT): 46.67% | % control ([2]; 2 appl, 280 g ai/ha, 27 DAT): 35.00% | % control ([2]; 2 appl, 280 g ai/ha, 35 DAT): 61.67% | % control ([2]; 2 appl, 280 g ai/ha, 42 DAT): 61.67% | % control ([2]; 2 appl, 280 g ai/ha, 61 DAT): 16.67% | % phytotoxicity ([3]; Agsorb LUM GA granule, 680 g ai/ha): 23.8% | % phytotoxicity ([3]; Agsorb LUM MS granule, 680 g ai/ha): 9.3% | % phytotoxicity ([3]; Agsorb RUM GA granule, 680 g ai/ha): 18.8% | % phytotoxicity ([3]; Bio Dac granule, 680 g ai/ha): 13.8% | % phytotoxicity ([3]; DG Lite granule, 680 g ai/ha): 20.0% | % phytotoxicity ([3]; Eco Gran granule, 680 g ai/ha): 20.0% | % phytotoxicity ([3]; Non dispersing extruded granules, 680 g ai/ha): 21.3% | % phytotoxicity ([3]; Oil dry granule, 680 g ai/ha): 12.5% | % phytotoxicity ([3]; Spray, 340 g ai/ha): 18.8% | % phytotoxicity ([4]; 1 appl, 140 g ai/ha, 7 DAT): 38.75% | % phytotoxicity ([4]; 1 appl, 140 g ai/ha, 14 DAT): 18.75% | % phytotoxicity ([4]; 1 appl, 140 g ai/ha, 21 DAT): 15.00% | % phytotoxicity ([4]; 1 appl, 140 g ai/ha, 32 DAT): 13.75% | % phytotoxicity ([4]; 1 appl, 140 g ai/ha, 35 DAT): 13.75% | % phytotoxicity ([4]; 1 appl, 140 g ai/ha, 42 DAT): 7.50% | % phytotoxicity ([4]; 1 appl, 140 g ai/ha, 49 DAT): 6.25% | % phytotoxicity ([4]; 1 appl, 280 g ai/ha, 7 DAT): 38.75% | % phytotoxicity ([4]; 1 appl, 280 g ai/ha, 14 DAT): 28.75% | % phytotoxicity ([4]; 1 appl, 280 g ai/ha, 21 DAT): 12.50% | % phytotoxicity ([4]; 1 appl, 280 g ai/ha, 32 DAT): 15.00% | % phytotoxicity ([4]; 1 appl, 280 g ai/ha, 35 DAT): 15.00% | % phytotoxicity ([4]; 1 appl, 280 g ai/ha, 42 DAT): 8.75% | % phytotoxicity ([4]; 1 appl, 280 g ai/ha, 49 DAT): 6.25% | % phytotoxicity ([4]; 2 appl, 140 g ai/ha, 7 DAT): 30.00% | % phytotoxicity ([4]; 2 appl, 140 g ai/ha, 14 DAT): 26.25% | % phytotoxicity ([4]; 2 appl, 140 g ai/ha, 21 DAT): 15.00% | % phytotoxicity ([4]; 2 appl, 140 g ai/ha, 32 DAT): 68.75% | % phytotoxicity ([4]; 2 appl, 140 g ai/ha, 35 DAT): 35.00% | % phytotoxicity ([4]; 2 appl, 140 g ai/ha, 42 DAT): 15.00% | % phytotoxicity ([4]; 2 appl, 140 g ai/ha, 49 DAT): 28.75% | % phytotoxicity ([4]; 2 appl, 280 g ai/ha, 7 DAT): 42.50% | % phytotoxicity ([4]; 2 appl, 280 g ai/ha, 14 DAT): 36.25% | % phytotoxicity ([4]; 2 appl, 280 g ai/ha, 21 DAT): 18.75% | % phytotoxicity ([4]; 2 appl, 280 g ai/ha, 32 DAT): 75.00% | % phytotoxicity ([4]; 2 appl, 280 g ai/ha, 35 DAT): 65.00% | % phytotoxicity ([4]; 2 appl, 280 g ai/ha, 42 DAT): 26.25% | % phytotoxicity ([4]; 2 appl, 280 g ai/ha, 49 DAT): 30.00% | phytotoxicity to turfgrass, in words ([5]; applied at low rates): levels of phytotoxicity to turfgrass are acceptable | phytotoxicity by turfgrass type, in words ([5]; cool season versus warm season species): lower on cool season turfgrass species

Source: US20100184596A1, “METHOD FOR THE CONTROL OF WEEDS IN TURF” (SYNGENTA CROP PROTECTION, INC., priority 2007, published 2010)
